Results published in ChEMBL document CHEMBL3769336, “Discovery of a Chemical Tool Inhibitor Targeting the Bromodomains of TRIM24 and BRPF” (J Med Chem, 2016).

Assays:
[1] = target: T1, Transcription intermediary factor 1-alpha (Homo sapiens, UniProt O15164); experiment: Inhibition of N-terminal His6-SUMO-1-tagged recombinant human TRIM24 bromodomain expressed in Escherichia coli BL21(DE3)-R3-pRARE2 cells by Alpha Screen assay
T1 sequence (O15164 whole entry): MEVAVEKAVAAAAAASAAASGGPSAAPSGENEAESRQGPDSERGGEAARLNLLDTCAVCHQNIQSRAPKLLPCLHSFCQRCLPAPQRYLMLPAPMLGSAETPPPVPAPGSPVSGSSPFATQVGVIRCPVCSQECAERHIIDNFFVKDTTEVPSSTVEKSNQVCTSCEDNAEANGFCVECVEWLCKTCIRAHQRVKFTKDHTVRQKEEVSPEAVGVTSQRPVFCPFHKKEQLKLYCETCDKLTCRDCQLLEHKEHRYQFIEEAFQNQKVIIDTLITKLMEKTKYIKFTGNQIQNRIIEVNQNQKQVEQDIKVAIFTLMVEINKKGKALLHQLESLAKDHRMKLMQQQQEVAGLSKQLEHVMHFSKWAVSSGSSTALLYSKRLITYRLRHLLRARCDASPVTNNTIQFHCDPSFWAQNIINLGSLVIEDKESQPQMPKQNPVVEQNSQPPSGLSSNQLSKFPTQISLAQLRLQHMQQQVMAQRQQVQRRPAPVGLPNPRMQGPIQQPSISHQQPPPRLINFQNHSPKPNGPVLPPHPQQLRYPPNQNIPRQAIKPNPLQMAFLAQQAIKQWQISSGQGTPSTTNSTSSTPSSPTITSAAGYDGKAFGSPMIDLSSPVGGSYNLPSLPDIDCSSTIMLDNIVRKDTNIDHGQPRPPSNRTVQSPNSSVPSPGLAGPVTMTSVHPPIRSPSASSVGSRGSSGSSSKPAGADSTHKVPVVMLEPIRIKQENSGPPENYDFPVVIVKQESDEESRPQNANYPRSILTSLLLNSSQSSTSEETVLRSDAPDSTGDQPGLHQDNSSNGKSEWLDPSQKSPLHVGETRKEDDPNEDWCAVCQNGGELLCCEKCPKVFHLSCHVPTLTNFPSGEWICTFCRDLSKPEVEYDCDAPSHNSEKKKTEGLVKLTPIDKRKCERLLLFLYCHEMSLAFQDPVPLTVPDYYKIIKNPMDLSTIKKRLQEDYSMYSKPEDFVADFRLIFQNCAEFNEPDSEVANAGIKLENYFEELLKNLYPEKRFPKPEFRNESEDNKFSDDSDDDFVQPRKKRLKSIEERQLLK

[2] = target: T2, Peregrin (Homo sapiens, UniProt P55201); experiment: Inhibition of BRPF1B (unknown origin) by Alpha Screen assay
T2 sequence (P55201 whole entry): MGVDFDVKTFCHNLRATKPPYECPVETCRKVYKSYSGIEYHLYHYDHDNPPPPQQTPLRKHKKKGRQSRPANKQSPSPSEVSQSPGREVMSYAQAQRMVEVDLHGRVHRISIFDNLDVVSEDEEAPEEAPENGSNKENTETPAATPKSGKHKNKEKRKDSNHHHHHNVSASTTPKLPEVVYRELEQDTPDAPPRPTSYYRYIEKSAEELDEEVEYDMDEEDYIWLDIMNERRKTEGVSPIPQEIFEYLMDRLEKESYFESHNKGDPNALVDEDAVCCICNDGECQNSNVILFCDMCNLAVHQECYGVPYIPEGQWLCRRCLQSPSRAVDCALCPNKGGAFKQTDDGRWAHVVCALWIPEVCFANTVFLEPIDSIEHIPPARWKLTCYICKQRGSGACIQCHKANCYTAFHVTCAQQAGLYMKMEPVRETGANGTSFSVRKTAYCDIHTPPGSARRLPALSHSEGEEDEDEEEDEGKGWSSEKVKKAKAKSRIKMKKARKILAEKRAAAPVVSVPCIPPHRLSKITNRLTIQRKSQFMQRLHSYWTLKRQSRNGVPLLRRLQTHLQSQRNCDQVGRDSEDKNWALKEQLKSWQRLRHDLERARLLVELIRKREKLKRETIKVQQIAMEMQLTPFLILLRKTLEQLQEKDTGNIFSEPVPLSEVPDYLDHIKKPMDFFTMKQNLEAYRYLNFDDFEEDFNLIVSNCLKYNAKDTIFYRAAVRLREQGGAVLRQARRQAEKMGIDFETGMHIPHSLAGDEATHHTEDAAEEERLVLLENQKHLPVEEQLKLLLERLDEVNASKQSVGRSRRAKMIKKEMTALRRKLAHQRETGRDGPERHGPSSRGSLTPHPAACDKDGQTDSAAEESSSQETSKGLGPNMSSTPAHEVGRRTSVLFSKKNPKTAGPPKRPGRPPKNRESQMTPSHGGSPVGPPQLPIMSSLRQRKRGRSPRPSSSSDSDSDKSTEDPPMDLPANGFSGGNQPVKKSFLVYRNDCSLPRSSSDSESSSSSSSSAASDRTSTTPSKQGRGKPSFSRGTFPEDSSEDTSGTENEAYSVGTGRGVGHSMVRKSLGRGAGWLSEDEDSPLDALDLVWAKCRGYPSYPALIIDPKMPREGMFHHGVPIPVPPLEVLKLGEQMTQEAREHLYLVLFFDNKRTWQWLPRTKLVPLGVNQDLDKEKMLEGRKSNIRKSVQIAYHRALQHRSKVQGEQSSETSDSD

[3] = target: T3, Bromodomain-containing protein 1 (Homo sapiens, UniProt O95696); experiment: Inhibition of BRPF2 BRD1 (unknown origin) by Alpha Screen assay
T3 sequence (O95696 whole entry): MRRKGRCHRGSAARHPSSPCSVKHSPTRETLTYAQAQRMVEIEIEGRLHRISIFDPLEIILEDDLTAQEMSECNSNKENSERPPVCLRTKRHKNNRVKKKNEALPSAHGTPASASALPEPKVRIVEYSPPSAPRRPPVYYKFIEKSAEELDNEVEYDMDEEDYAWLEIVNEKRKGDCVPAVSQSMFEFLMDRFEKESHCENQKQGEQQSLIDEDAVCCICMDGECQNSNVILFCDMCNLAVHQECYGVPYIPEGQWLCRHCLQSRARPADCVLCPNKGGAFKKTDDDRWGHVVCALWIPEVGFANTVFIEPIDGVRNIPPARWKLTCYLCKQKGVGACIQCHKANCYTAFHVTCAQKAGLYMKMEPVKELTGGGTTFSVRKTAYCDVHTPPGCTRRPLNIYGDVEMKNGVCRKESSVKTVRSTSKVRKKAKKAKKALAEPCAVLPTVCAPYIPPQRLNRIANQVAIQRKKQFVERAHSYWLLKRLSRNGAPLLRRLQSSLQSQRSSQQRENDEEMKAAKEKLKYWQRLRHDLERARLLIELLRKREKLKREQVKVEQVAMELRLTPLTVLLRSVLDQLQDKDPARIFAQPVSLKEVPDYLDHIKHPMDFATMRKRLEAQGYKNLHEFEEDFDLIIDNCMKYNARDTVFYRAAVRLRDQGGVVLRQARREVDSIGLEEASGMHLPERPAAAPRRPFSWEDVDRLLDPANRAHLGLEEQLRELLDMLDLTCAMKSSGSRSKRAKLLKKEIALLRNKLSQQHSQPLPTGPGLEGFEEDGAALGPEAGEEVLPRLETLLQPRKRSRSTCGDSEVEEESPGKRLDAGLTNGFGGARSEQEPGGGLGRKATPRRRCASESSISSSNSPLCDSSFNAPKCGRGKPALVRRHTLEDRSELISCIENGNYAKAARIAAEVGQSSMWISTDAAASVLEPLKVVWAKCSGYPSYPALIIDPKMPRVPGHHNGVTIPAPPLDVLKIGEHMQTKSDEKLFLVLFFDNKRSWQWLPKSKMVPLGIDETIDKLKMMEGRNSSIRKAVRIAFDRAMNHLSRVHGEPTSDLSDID

## Cc1ccc(S(=O)(=O)Nc2cc3c(cc2Oc2ccccc2)n(C)c(=O)n3C)cc1C
[1]
  IC50: 4.77 µM
[2]
  IC50: 3.1 µM
[3]
  IC50: 5.16 µM

## Cn1c(=O)n(C)c2cc(NS(=O)(=O)c3ccc4c(c3)CCC(C)(C)O4)ccc21
[1]
  IC50: 3.69 µM
[2]
  IC50: 0.31 µM
[3]
  IC50: 2.46 µM

## Cn1c(=O)n(C)c2cc(Oc3ccccc3)c(NS(=O)(=O)c3ccc(Cl)cc3)cc21
[1]
  IC50: 1.56 µM
[2]
  IC50: 0.27 µM
[3]
  IC50: 3.47 µM

## Cc1ccc(S(=O)(=O)Nc2cc3c(cc2Oc2ccccc2)n(C)c(=O)n3C)cc1F
[1]
  IC50: 2.7 µM
[2]
  IC50: 1.05 µM
[3]
  IC50: 3.69 µM

## Cn1c(=O)n(C)c2cc(NS(=O)(=O)c3ccc4c(c3)CCC4)ccc21
[1]
  IC50: > 10 µM
[2]
  IC50: 0.29 µM
[3]
  IC50: 1.71 µM

## Cc1cc(Cl)ccc1S(=O)(=O)Nc1cc2c(cc1Oc1ccccc1)n(C)c(=O)n2C
[1]
  IC50: 2.45 µM
[2]
  IC50: 1.17 µM
[3]
  IC50: 2.39 µM

## Cc1ccc(F)cc1S(=O)(=O)Nc1cc2c(cc1Oc1ccccc1)n(C)c(=O)n2C
[1]
  IC50: 3.42 µM
[2]
  IC50: 0.79 µM
[3]
  IC50: 2.42 µM

## COc1ccc(Oc2cc3c(cc2NS(=O)(=O)c2ccccc2)n(C)c(=O)n3C)cc1
[1]
  IC50: 0.73 µM
[2]
  IC50: 0.66 µM
[3]
  IC50: 2.77 µM

## Cn1c(=O)n(C)c2cc(NS(=O)(=O)c3ccc4c(c3)CCCC4)ccc21
[1]
  IC50: 6.17 µM
[2]
  IC50: 0.33 µM
[3]
  IC50: 2.05 µM

## Cn1c(=O)n(C)c2cc(Oc3ccccc3)c(NS(=O)(=O)c3ccc4c(c3)CCCC4)cc21
[1]
  IC50: > 10 µM
[2]
  IC50: 2.68 µM
[3]
  IC50: 2.67 µM

## CC(C)c1ccc(S(=O)(=O)Nc2ccc3c(c2)n(C)c(=O)n3C)cc1
[1]
  IC50: 3.45 µM
[2]
  IC50: 0.42 µM
[3]
  IC50: 4.3 µM

## COc1ccc(Oc2cc3c(cc2NS(=O)(=O)c2ccccc2C)n(C)c(=O)n3C)cc1
[1]
  IC50: 1.47 µM
[2]
  IC50: 0.68 µM
[3]
  IC50: 2.38 µM

## COc1cccc(S(=O)(=O)Nc2cc3c(cc2Oc2ccccc2)n(C)c(=O)n3C)c1
[1]
  IC50: 2.38 µM
[2]
  IC50: 0.43 µM
[3]
  IC50: 1.99 µM

## CCCOc1ccc(S(=O)(=O)Nc2cc3c(cc2Oc2ccc(OC)cc2)n(C)c(=O)n3C)cc1
[1]
  IC50: 8.4 µM
[2]
  IC50: 6.72 µM
[3]
  IC50: > 10 µM

## Cc1ccccc1S(=O)(=O)Nc1cc2c(cc1Oc1ccccc1)n(C)c(=O)n2C
[1]
  IC50: 2.62 µM
[2]
  IC50: 0.43 µM
[3]
  IC50: 1.7 µM

## COc1cc2c(cc1NS(=O)(=O)c1ccc(Br)cc1C)n(C)c(=O)n2C
[3]
  IC50: 1.2 µM

## COc1ccc(S(=O)(=O)Nc2cc3c(cc2Oc2ccccc2)n(C)c(=O)n3C)cc1
[1]
  IC50: 0.74 µM
[2]
  IC50: 0.34 µM
[3]
  IC50: 1.33 µM

## Cc1ccc(S(=O)(=O)Nc2cc3c(cc2Oc2ccccc2)n(C)c(=O)n3C)cc1
[1]
  IC50: 1.27 µM
[2]
  IC50: 0.51 µM
[3]
  IC50: 2.92 µM

## Cc1ccc(S(=O)(=O)Nc2ccc3c(c2)n(C)c(=O)n3C)cc1F
[1]
  IC50: > 10 µM
[2]
  IC50: 0.59 µM
[3]
  IC50: 6.14 µM

## Cn1c(=O)n(C)c2cc(NS(=O)(=O)c3ccc4c(c3)CCCO4)ccc21
[1]
  IC50: 4.63 µM
[2]
  IC50: 0.27 µM
[3]
  IC50: 1.6 µM

## COc1ccc(Oc2cc3c(cc2NS(=O)(=O)c2ccc(C)cc2)n(C)c(=O)n3C)cc1
[1]
  IC50: 2.7 µM
[2]
  IC50: 2.24 µM
[3]
  IC50: > 10 µM

## COc1ccc(S(=O)(=O)Nc2cc3c(cc2Oc2ccccc2)n(C)c(=O)n3C)cc1OC
[1]
  IC50: 0.48 µM
[2]
  IC50: 0.29 µM
[3]
  IC50: 1.21 µM

## COc1ccc(Oc2cc3c(cc2NS(=O)(=O)c2ccc(OC)cc2)n(C)c(=O)n3C)cc1
[1]
  IC50: 0.77 µM
[2]
  IC50: 0.66 µM
[3]
  IC50: 3.58 µM

## COC1(C)Oc2cc(S(=O)(=O)Nc3ccc4c(c3)n(C)c(=O)n4C)ccc2O[C@]1(C)OC (stereo not given in full)
[1]
  IC50: > 10 µM
[2]
  IC50: 1.4 µM
[3]
  IC50: > 10 µM
